The values below come from patent publication US20020197261A1, “Therapeutic agent/ligand conjugate compositions, their methods of synthesis and use” (priority 2001, published 2002).

For the assay, the system named is A431 cells. Description: MTT cytotoxicity, 6-hour pretreatment system. It is filed as cell-based. Conditions: Homo sapiens, A-431, read-out: IC50 (50% growth inhibition), 6 hours exposure, washing, additional 72 hours incubation.

Experimental: One hundred microliter of growth medium suspending 1000-2000 cells per well was plated out in 96-well plates and incubated for 2 days to allow the cells to attach. Various dilutions of the drug or conjugates were added to each well and the plates were incubated for 72 hours at 37° C. Alternatively, a 6-hour pretreatment protocol was used. Cells were exposed to various concentrations of the drug or conjugate for 6 hours at 37 ° C., and then washed twice with the fresh culture medium. The cells were incubated for additional 72 hours. At the end of the incubation period, twenty microliters of MTT solution from Promega Cell Proliferation Assay kit (Madison, Wis.) were added to the wells. The microplates were then incubated for 1 hour at 37° C. Absorbance was measured at 490 nm using a microplate reader (Molecular Devices Corp, Sunnyvale, Calif.). The data reported represent the means of quadruplicate measurement and the standard errors of the mean were less than 15%.

With `COc1cccc2c1C(=O)c1c(O)c3c(c(O)c1C2=O)C[C@@](O)(C(=O)CO)C[C@@H]3O[C@H]1C[C@H](N)[C@H](O)[C@H](C)O1` [Adr, Adriamycin], the IC50 turned out to be 17.7 µM.

As usually defined, the IC50 is the concentration needed to halve the response being measured.
